In publication PMC3917480 (Bioorganic & medicinal chemistry, 2013):
Where a SMILES comes first, the peptide text is derived from it. The star is where a group is joined. X3 = O=C(c1ccc(N2CCNCC2)cn1)*; X5 = CC(C)COc1cccc(CC(=O)*)c1; X6 = CCCOc1cccc(CC(=O)*)c1; X2 = CCOc1cccc(CC(=O)*)c1

Experiments:
CDK2/cyclin A = CDK2/cyclin A (Homo sapiens, UniProt P20248); assay: CDK2A2 fluorescence polarization competitive binding assay; conditions: FLIP context
CDK4/cyclin D1 = CDK4/cyclin D1 (Homo sapiens, UniProt P24385); assay: CDK4D1 fluorescence polarization competitive binding assay; conditions: for binding affinity (in words), CDK4D1: FLIP context
Sequence of CDK4/cyclin D1 (P24385 whole entry): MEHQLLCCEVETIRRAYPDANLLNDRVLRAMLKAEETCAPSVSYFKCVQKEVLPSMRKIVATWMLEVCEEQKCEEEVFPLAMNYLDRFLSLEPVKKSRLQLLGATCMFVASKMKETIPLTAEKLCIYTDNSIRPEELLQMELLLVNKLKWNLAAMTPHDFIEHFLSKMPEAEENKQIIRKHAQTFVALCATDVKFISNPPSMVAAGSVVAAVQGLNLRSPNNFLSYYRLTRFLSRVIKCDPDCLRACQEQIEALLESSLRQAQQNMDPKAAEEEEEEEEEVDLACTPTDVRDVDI
Sequence of CDK4/cyclin D1 (P11802 whole entry partner): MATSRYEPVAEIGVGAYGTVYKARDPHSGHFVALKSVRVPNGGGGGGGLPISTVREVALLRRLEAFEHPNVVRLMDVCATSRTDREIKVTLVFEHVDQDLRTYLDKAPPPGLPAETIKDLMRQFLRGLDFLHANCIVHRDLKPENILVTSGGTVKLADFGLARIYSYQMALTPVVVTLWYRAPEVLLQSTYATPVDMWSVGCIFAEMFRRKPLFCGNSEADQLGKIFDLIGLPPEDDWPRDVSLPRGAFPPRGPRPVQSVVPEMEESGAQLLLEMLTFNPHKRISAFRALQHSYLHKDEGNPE

Structure (SMILES) | binding affinity (in words), CDK2A2 (CDK2/cyclin A) | binding affinity (in words), CDK4D1 (CDK4/cyclin D1) | increased potency relative to 525 in CDK4D1 (CDK4/cyclin D1; relative to 525) [fold]
CCCOc1cccc(CC(=O)N[C@@H](CCCNC(=N)N)C(=O)N[C@@H](CC(C)C)C(=O)N[C@H](C(=O)N[C@@H](Cc2ccccc2)C(N)=O)[C@@H](C)CC)c1 [compound 5853] (X6-RLIF-NH2) | None of these analogs in the FLIP context possessed appreciable binding affinity | None of these analogs in the FLIP context possessed appreciable binding affinity | 
CCOc1cccc(CC(=O)N[C@@H](CCCNC(=N)N)C(=O)N[C@@H](CC(C)C)C(=O)N[C@H](C(=O)N[C@@H](Cc2ccccc2)C(N)=O)[C@@H](C)CC)c1 [compound 5854] (X2-RLIF-NH2) | None of these analogs in the FLIP context possessed appreciable binding affinity | None of these analogs in the FLIP context possessed appreciable binding affinity | 
CC[C@H](C)[C@H](NC(=O)[C@H](CC(C)C)NC(=O)[C@H](CCCNC(=N)N)NC(=O)c1ccc(N2CCNCC2)cn1)C(=O)N[C@@H](Cc1ccccc1)C(N)=O [compound 5856] (X3-RLIF-NH2) |  |  | 2
CC[C@H](C)[C@H](NC(=O)[C@H](CC(C)C)NC(=O)[C@H](CCCNC(=N)N)NC(=O)Cc1cccc(OCC(C)C)c1)C(=O)N[C@@H](Cc1ccccc1)C(N)=O [compound 5855] (X5-RLIF-NH2) | None of these analogs in the FLIP context possessed appreciable binding affinity | None of these analogs in the FLIP context possessed appreciable binding affinity | 
